Measured values: US20150141411A1, “SUBSTITUTED 3,4-DIHYDRO-2H-PYRIDO[1,2-A]PYRAZINE-1,6-DIONE DERIVATIVES USEFUL FOR THE TREATMENT OF (INTER ALIA) ALZHEIMER'S DISEASE” (Janssen Pharmaceuticals, Inc., priority 2012, published 2015)

Experiments:
γ-secretase [1] = target: T1, γ-secretase (Homo sapiens, UniProt P49768); experiment: Screening for γ-secretase-modulating activity: Aβ42 in supernatant of SKNBE2 cells carrying hAPP 695 wild type (Alphalisa); format: cell-based; conditions: SKNBE2 human neuroblastoma cells carrying hAPP 695 wild type, overnight incubation, Aβ42 in cell supernatant
T1 construct: endogenous in cells; host or cells: SKNBE2 human neuroblastoma cells (carrying hAPP 695 wild type as substrate)
Summary of the method: (§1)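 SKNBE2 neuroblastoma cells expressing wild-type hAPP 695 plated at 10^4 cells/well in Ultraculture with test compound, incubated overnight at 37° C. Aβ42 (C-terminal/N-terminal antibody pair) and Aβtotal (N-terminal/4G8 pair) in supernatant quantified by AlphaLISA. IC50 from 4-parameter fit of percent of compound-free control.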

γ-secretase [2] = target: T1, γ-secretase; experiment: Screening for γ-secretase-modulating activity: Aβtotal in supernatant of SKNBE2 cells carrying hAPP 695 wild type (Alphalisa); format: cell-based; conditions: SKNBE2 human neuroblastoma cells carrying hAPP 695 wild type, overnight incubation, Aβtotal in cell supernatant
Summary of the method: as §1

Aβ40 = experiment: In vivo efficacy: brain soluble Aβ40 in non-transgenic rodents (MSD electrochemiluminescence multiplex); set-up: species or system mouse; conditions: Mus musculus, po, 4 h, dose 30 mg/kg oral dosing, brain soluble fraction, animals sacrificed after 4 h, untreated animals (Ctrl) set at 100, read-out: Aβ40 (% vs Ctrl)_Mean
Source text: To determine whether acute administration of an Aβ42 lowering agent would reduce Aβ42 levels in vivo, non-transgenic rodents, e.g. mice or rats were used. Animals treated with the Aβ42 lowering agent were examined and compared to those untreated or treated with vehicle and brain levels of soluble Aβ42, Aβ40, Aβ38, and Aβ37 were quantitated by Meso Scale Discovery's (MSD) electrochemiluminescence detection technology. Treatment periods varied from hours (h) to days and were adjusted based on the results of the Aβ42 lowering once a time course of onset of effect could be established.
A typical protocol for measuring Aβ42 lowering in vivo is shown but it is only one of many variations that could be used to optimize the levels of detectable Aβ. For example, Aβ42 lowering compounds were formulated in 20% of Captisol® (a sulfo-butyl ether of β-cyclodextrin) in water or 20% hydroxypropyl βcyclodextrin. The Aβ42 lowering agents were administered as a single oral dose or by any acceptable route of administration to overnight fasted animals. After 4 h, the animals were sacrificed and Aβ42 levels were analysed.
Blood was collected by decapitation and exsanguinations in EDTA-treated collection tubes. Blood was centrifuged at 1900 g for 10 minutes (min) at 4° C. and the plasma recovered and flash frozen for later analysis. The brain was removed from the cranium and hindbrain. The cerebellum was removed and the left and right hemisphere were separated. The left hemisphere was stored at −18° C. for quantitative analysis of test compound levels. The right hemisphere was rinsed with phosphate-buffered saline (PBS) buffer and immediately frozen on dry ice and stored at −80° C. until homogenization for biochemical assays.
Mouse brains from non-transgenic animals were resuspended in 8 volumes of 0.4% DEA (diethylamine)/50 mM NaCl containing protease inhibitors (Roche-11873580001 or 04693159001) per gram of tissue, e.g. for 0.158 g brain, add 1.264 ml of 0.4% DEA. All samples were homogenized in the FastPrep-24 system (MP Biomedicals) using lysing matrix D (MPBio #6913-100) at 6 m/s for 20 seconds. Homogenates were centrifuged at 20800×g for 5 min and supernatants collected. Supernatants were centrifuged at 221.300×g for 50 min. The resulting high speed supernatants were then transferred to fresh eppendorf tubes. Nine parts of supernatant were neutralized with 1 part 0.5 M Tris-HCl pH 6.8 and used to quantify Aβ.
To quantify the amount of Aβ42, Aβ40, Aβ38, and Aβ37 in the soluble fraction of the brain homogenates, simultaneous specific detection of Aβ42, Aβ40, Aβ38, and Aβ37 was performed using MSD's electro-chemiluminescence multiplex detection technology. In this assay purified monoclonal antibodies specific for Abeta37 (JRD/Aβ37/3), Abeta38 (J&JPRD/Aβ38/5), Abeta40 (JRF/cAβ40/28), and Abeta42 (JRF/cAβ42/26) were coated on MSD 4-plex plates. Briefly, the standards (a dilution of synthetic Aβ42, Aβ40, Aβ38, and Aβ37) were prepared in 1.5 ml Eppendorf tube in Ultraculture, with final concentrations ranging from 10000 to 0.3 pg/m. The samples and standards were co-incubated with Sulfo-tag labelled JRF/rAβ/2 antibody to the N-terminus of Aβ as detector antibody. 50 μl of conjugate/sample or conjugate/standards mixtures were then added to the antibody-coated plate. The plate was allowed to incubate overnight at 4° C. in order to allow formation of the antibody-amyloid complex. Following this incubation and subsequent wash steps the assay was finished by adding read buffer according to the manufacturer's instructions (Meso Scale Discovery, Gaitherburg, Md.).
The SULFO-TAG emits light upon electrochemical stimulation initiated at the electrode. MSD Sector instrument SI6000 was used for signal read-out.
The results are shown in Table 5 (dose 30 mg/kg oral dosing) (value for untreated animals as control (Ctrl) was set at 100): […]

| Compound | IC50 (γ-secretase [1]) | IC50 (γ-secretase [2]) | response vs control in vivo at 30 mg/kg (Aβ40) |
| --- | --- | --- | --- |
| Cc1cn(-c2ccc3n(c2=O)C[C@@H](C)N(Cc2ccc(F)c(F)c2)C3=O)cn1 [compound 133] | 1510 nM | > 10000 nM | 77% |
| Cc1cn(-c2ccc3n(c2=O)C[C@@H](C)N(Cc2cc(Br)cc(C(F)(F)F)c2)C3=O)cn1 [compound 145] | 110 nM | > 10000 nM | 92% |
| Cc1cn(-c2cc(F)c3n(c2=O)C[C@@H](C)N(Cc2cc(C(F)(F)F)cc(C(F)(F)F)c2)C3=O)cn1 [compound 158] | 460 nM | > 10000 nM | 98% |

The next compounds have a lower IC50 (γ-secretase [1]) than those just listed; values first:

| IC50 (γ-secretase [1]) | IC50 (γ-secretase [2]) | Compound | response vs control in vivo at 30 mg/kg (Aβ40) |
| --- | --- | --- | --- |
| 100 nM | > 10000 nM | Cc1cn(-c2ccc3n(c2=O)C[C@@H](C)N(Cc2cc(CC(F)(F)F)cc(C(F)(F)F)c2)C3=O)cn1 [compound 134] | 115% |
| 60 nM | > 10000 nM | Cc1cn(-c2ccc3n(c2=O)C[C@@H](C)N(Cc2cc(OC(F)(F)F)cc(C(F)(F)F)c2)C3=O)cn1 [compound 140] | 71% |
| 50 nM | > 10000 nM | Cc1cn(-c2ccc3n(c2=O)C[C@@H](C)N(Cc2cc(OCC(F)(F)F)cc(C(F)(F)F)c2)C3=O)cn1 [compound 166] | 107% |
| 30 nM | 6460 nM | Cc1cn(-c2ccc3n(c2=O)C[C@@H](C)N(Cc2c[nH]c4cc(F)c(Cl)cc24)C3=O)cn1 [compound 195] | 135% |
